These results are taken from paper PMC11396667, “Design, Synthesis, and Anticancer and Antibacterial Activities of Quinoline-5-Sulfonamides” (Molecules, 2024).

The subject of series [1] is methicillin-resistant S. aureus SA 630. Nature of the series: MBC, agar aliquot subculture method, MRSA2. The series is classed as cell-based. As to conditions: Staphylococcus aureus; 99.9% decrease in CFU, 24 h, 37 °C. The source says: The activities of the individual derivatives were expressed as minimum inhibitory concentrations (MICs) and minimum bactericidal concentrations (MBCs) and are shown in Table 3 together with the values of the antibiotics used as standards for comparison. […] MBC values of bactericidal compounds are indicated in bold in Table 3.
For the above-mentioned strains/isolates, the agar aliquot subculture method was used as a test for bactericidal agents. After the MIC value determination, the inoculum was transferred to CaMH (Oxoid) for staphylococci, and BHI (Oxoid) for enterococci medium using a multipoint inoculator. The plates were incubated in a thermostat at 37 °C for 24 h. The lowest concentration of test compound at which ≤5 colonies were obtained was then evaluated as MBC, corresponding to a 99.9% decrease in CFU relative to the original inoculum.

For series [2], the system named is Staphylococcus aureus ATCC 29213. The experiment in a line: MIC, microtitration broth method, SA. It counts as cell-based. As to conditions: ATCC29213, 24 h, 37 °C, CaMH broth. The source says:
Since there is a general decrease in immunity during the treatment of oncological patients, i.e., patients are more susceptible to infectious diseases, it is advantageous if anticancer agents show antimicrobial properties at the same time. Therefore, the effects of the compounds were also investigated against Gram-positive bacteria. For this purpose, the susceptible collection strains of aerobic Staphylococcus aureus ATCC 29213 and facultatively aerobic Enterococcus faecalis ATCC 29212 and resistant clinical isolates of methicillin-resistant S. aureus (MRSA) SA 3202, SA 630 carrying the mecA gene, and vancomycin-resistant isolates of E. faecalis (VRE) 342B, 368, and 725B carrying the vanA gene were selected. Thus, the selection of the studied bacterial strains was adopted following the CLSI ([…]) international reference methodologies.
The in vitro antibacterial activity of the synthesized compounds was evaluated against representatives of multidrug-resistant bacteria, […] clinical isolates of methicillin-resistant S. aureus: clinical isolates of human origin, MRSA SA 3202, and MRSA SA 630 (National Institute of Public Health, Prague, Czech Republic), carrying the mecA gene. These two clinical isolates were classified as vancomycin-susceptible (but with a higher MIC of vancomycin equal to 2 μg/mL (VA2-MRSA). Vancomycin- and methicillin-susceptible S. aureus ATCC 29213 and vancomycin-susceptible Enterococcus faecalis ATCC 29212, obtained from the American Type Culture Collection, were used as the reference and quality control strains. Three vanA gene-carrying vancomycin-resistant isolates of E. faecalis (VRE 342B, VRE 368, VRE 725B) (Department of Infectious Diseases and Microbiology, Faculty of Veterinary Medicine, University of Veterinary Sciences Brno, Czech Republic) were provided by Oravcova et al..
The minimum inhibitory concentrations (MICs) were evaluated by the microtitration broth method according to the CLSI, with some modifications. The compounds were dissolved in DMSO (Sigma, St. Louis, MO, USA) to obtain a concentration of […] and diluted in a microtitration plate in an appropriate medium, i.e., Cation-Adjusted Mueller–Hinton Broth (CaMH, Oxoid, Basingstoke, UK) for staphylococci, and Brain Heart Infusion Broth (BHI, Oxoid) for enterococci to reach the final concentration of 256–0.125 µg/mL. Microtiter plates were inoculated with test microorganisms so that the final concentration of bacterial cells was 10^5. Ampicillin, oxacillin, and ciprofloxacin (Sigma) were used as reference drugs. A drug-free control and a sterility control were included. The plates were incubated for 24 h at 37 °C for staphylococci and enterococci. […] The experiments were repeated three times.

For series [3], the system named is C-32, A549, MDA-MB-231 and HFF-1 cells. The experiment in a line: Crystal violet, WST-1 and LDH assays of 3c. The settings on record: 3c in medium above 0.3 µM, 72 h; particularly in A549 and MDA-MB-231 cells. The series is classed as cell-based. The method, then:
The effect of the compound on cell viability was determined using, in addition to the WST-1 assay, the crystal violet assay and the LDH (lactate dehydrogenase) assay. Furthermore, a wound healing test (indicator of cell proliferation and migration capacity) and assessment of gene expression (in the transcription phase) of BCL-2, BAX, TP53, P21, and H3 were performed.
An increase in the number of dead cells is shown by the absorbance line in the LDH test.
Cells were seeded in 96-well plates at 5000/well in 100 μL of medium. After 24 h of incubation, the medium was replaced with a new one with the addition of the test substance. […]
Crystal violet test: The crystal violet (Sigma-Aldrich, Darmstadt, Germany) test determines the relative number of cells based on the amount of dye bound to the DNA of cells in the culture. The absorbance measurement was performed at a wavelength of λ = 540 nm (reference wavelength λ = 690 nm).
WST-1 test: The WST-1 test (Roche Diagnostics, Mannheim, Germany) allows one to determine the relative number of cells in cultures. Absorbance is directly proportional to the number of cells and their metabolic activity. The absorbance measurement is performed at λ = 450 nm (reference wave 600 nm). […]

Series [4] has the same test system. Nature of the series: Wound healing assay. As to conditions: 3 µM, 72 h after scratching, all cells. It counts as cell-based, human. As for the experimental part: Photographs of the cell culture (control and culture exposed to compound 3c at a concentration of 3 µM) were taken after scraping the bottom of the vessel with a pipette tip and then after 72 h of incubation (Figure 2). […] In control cultures, the cell-free surface of the vessel (scraped with a pipette tip) becomes overgrown with cells, while in cultures supplemented with medium containing 3 µM of compound 3c, empty spots are visible. In the case of A549 and MDA-MB-231 cells, entire cell-free regions are clearly visible.
The wound healing assay is a standard in vitro technique for examining collective cell migration in two dimensions. The test involves scratching the bottom of a vessel (wells of a culture plate) with a pipette tip and observing over time how quickly cells move to occupy a free surface under specific culture conditions. In the presented work, the observation was carried out after 72 h of culture. At t = 0, a scratch was made, the medium was replaced with fresh one with the addition of the test compound, and then the cultures were incubated for 72 h. The observation was carried out using an OLYMPUS IX 50 microscope (Tokyo, Japan) with a KERN camera (KERN & SOHN GmbH, Balingen, Germany), and an image analysis system with KERN software (BalanceConnection SCD-4.0 Pro) was used to analyze the observed changes.

In brackets after ≈: the same amount, converted by molar mass.

For orientation: MBC means the smallest concentration meeting the test's criterion for killing. The low end stands for greater bactericidal potency, the high end for weaker bactericidal potency. What is called MIC is the least concentration at which growth counts as inhibited. A low value points to a more susceptible organism. In series [1], `C#CC(C)(C)NS(=O)(=O)c1ccc(O)c2ncccc12` [3b, 8-Hydroxy-N-(1,1-dimethylprop-2-yn-1-yl)quinoline-5-sulfonamide] registered a minimal bactericidal concentration (MBC) of 110 µM (≈ 31.9 µg/mL). In addition, the MIC in series [2] was found to be 55.2 µM (≈ 16 µg/mL).

Molecule `C#CCOc1ccc(NS(=O)(=O)c2ccc(O)c3ncccc23)cc1` [3d, 8-Hydroxy-N-[4-(prop-2-yn-1-yloxy)phenyl]quinoline-5-sulfonamide] registered a minimum bactericidal concentration (MBC) in series [1] of 90.4 µM (≈ 32 µg/mL). Further, in series [2], the MIC was determined as 45.2 µM (≈ 16 µg/mL).

`C#CCOc1ccccc1NS(=O)(=O)c1ccc(O)c2ncccc12` [3f, 8-Hydroxy-N-[2-(prop-2-yn-1-yloxy)phenyl]quinoline-5-sulfonamide] displayed an MBC in series [1] of 90.4 µM (≈ 32 µg/mL). Further, the MIC in series [2] is 45.2 µM (≈ 16 µg/mL).

`C#CCOc1cccc(NS(=O)(=O)c2ccc(O)c3ncccc23)c1` [3e, 8-Hydroxy-N-[3-(prop-2-yn-1-yloxy)phenyl]quinoline-5-sulfonamide]: the minimum bactericidal concentration (MBC) in series [1] worked out at 90.4 µM (≈ 32 µg/mL). In series [2], the MIC amounted to 45.2 µM (≈ 16 µg/mL).

`C#CCN(C)S(=O)(=O)c1ccc(O)c2ncccc12` [3c, 8-Hydroxy-N-methyl-N-(prop-2-yn-1-yl)quinoline-5-sulfonamide] returned an MBC in series [1] of 29 µM (≈ 8.01 µg/mL). For the same molecule, the “cell number in cultures (cell viability and cytotoxicity assays)” value in series [3] was “significant decrease in cell number”. Besides, the minimal inhibitory concentration (MIC) in series [2] worked out at 29 µM (≈ 8.01 µg/mL). The “proliferative activity and migration capacity (wound healing)” value in series [4] was “reduction in proliferative activity and migration capacity”.

Consider `C#CCNS(=O)(=O)c1ccc(O)c2ncccc12` [3a, 8-Hydroxy-N-(prop-2-yn-1-yl)quinoline-5-sulfonamide], for which the minimal bactericidal concentration (MBC) in series [1] was 244 µM (≈ 64 µg/mL). This molecule displayed a minimal inhibitory concentration (MIC) in series [2] of 122 µM (≈ 32 µg/mL).
